Here are results for two compounds from US20180087086A1, “CELL EGRESS AND INVASION INHIBITORS AND THEIR USE AS ANTIPARASITICAL AGENTS” (THE JOHNS HOPKINS UNIVERSITY, priority 2015, published 2018).

For one test, the system named is P. berghei sporozoites. Nature of the test: trail radius of gliding sporozoites (ImageJ). Type of test: cell-based. Particulars: 62.5 μM; 130-150 trail radii; p-value <0.0001. On the procedure: The trail radius was measured using ImageJ and the statistical analyses to determine standard error mean and t-test were performed using GraphPad.
The gliding phenotype was altered to determine whether the compounds were having off-target effects. While quantifying the number of deposited trails, the trail diameter in the presence of compounds was altered. An altered trail diameter is more likely due to either a direct effect on the motor or an effect on sporozoite shape. The diameter of the circular trails deposited by the parasites in the DMSO control was measured and in the presence of three compounds at 62.5 μM (FIG. 8). This concentration was chosen because at higher concentrations, there were not enough sporozoite trails to measure to do a statistical analysis of the results. Using ImageJ, circles were fit to trails in multiple images to measure 130-150 trail radii. The average trail radii increased in the presence of compounds 4, 17, and 18 with a p-value <0.0001. The increase in average trail size was 6.3 microns, 2.5 microns, and 3.6, for compounds 4, 17, and 18, respectively.

In the next test the target is T1, rabbit aldolase (Oryctolagus cuniculus, UniProt P00883).
T1 sequence (P00883 1-364): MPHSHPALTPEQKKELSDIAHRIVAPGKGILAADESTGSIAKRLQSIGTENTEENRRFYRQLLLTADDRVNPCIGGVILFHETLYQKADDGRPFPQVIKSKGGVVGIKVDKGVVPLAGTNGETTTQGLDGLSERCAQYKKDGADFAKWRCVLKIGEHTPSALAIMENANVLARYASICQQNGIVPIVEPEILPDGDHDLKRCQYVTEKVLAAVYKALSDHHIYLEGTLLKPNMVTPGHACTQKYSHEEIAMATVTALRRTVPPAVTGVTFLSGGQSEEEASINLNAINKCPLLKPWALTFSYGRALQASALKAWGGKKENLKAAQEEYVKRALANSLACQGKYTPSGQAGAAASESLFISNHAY
Nature of the test: aldolase enzyme activity assay, rabbit aldolase. Type of test: biochemical. Conditions: surrogate for human aldolase. From the text:
(§1) FIGS. 16A-16D depict an aldolase enzyme activity assay. (A) Cartoon and surface representation of aldolase with TRAPpep bound (magenta, sticks) (PDB entry 2pc4), overlapping the F16BP (green, sticks) substrate binding site (PDB entry 4ald), via PyMOL. (B) Coupled enzyme assay to measure aldolase activity via NADH consumption as measured at 340 nm. (C) Concentration-dependent effect of compounds on PfAldolase inhibition in the presence of PbTRAP peptide. Activity is normalized to the PbTRAP control, which reduces Vmax to 50% of enzyme without PbTRAP. (D) PfAldolase activity in the presence of compounds to determine direct inhibition of enzyme by the compounds. Activity is normalized to the PfAldolase control measured Vmax. Standard error means plotted for activity assays and standard deviation for SPR data.
(§2) Dose-Dependent Enzymatic Inhibition of Compounds on P. falciparum Aldolase and Rabbit Aldolase as a Surrogate for Human Aldolase.

For test [1], the target named is P. falciparum aldolase in the presence of TRAP (Plasmodium falciparum, UniProt Q7KQL9). The test is described as follows: aldolase enzyme activity assay, P. falciparum aldolase in the presence of TRAP. It is filed as biochemical. Particulars: in the presence of TRAP and the compounds.
Chain of P. falciparum aldolase in the presence of TRAP (Q7KQL9 whole entry): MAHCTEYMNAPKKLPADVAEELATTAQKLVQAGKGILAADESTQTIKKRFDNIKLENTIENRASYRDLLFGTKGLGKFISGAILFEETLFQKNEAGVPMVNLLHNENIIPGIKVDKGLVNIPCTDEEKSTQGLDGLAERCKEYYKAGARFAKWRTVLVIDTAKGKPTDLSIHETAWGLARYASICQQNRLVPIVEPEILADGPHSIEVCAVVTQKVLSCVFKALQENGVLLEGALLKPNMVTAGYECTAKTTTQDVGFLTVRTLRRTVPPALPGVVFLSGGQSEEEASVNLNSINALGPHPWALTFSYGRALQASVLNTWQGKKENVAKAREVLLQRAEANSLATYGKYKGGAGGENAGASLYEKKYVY
Source text: as §1, §2

Counter-ions that a name gives are not always drawn.

In the case of `O=C(Nc1ccc(-c2nc3cc4ccccc4cc3[nH]2)cc1)c1cccc(Br)c1` [Compound 17, 3-bromo-N-[4-(1H-naphtho[2,3-d]imidazol-2-yl)phenyl]benzamide], in the test on P. berghei sporozoites, the “increase in average trail size (trail radius) vs DMSO control” value turned out to be 2.5 microns.
For the compound `CCN(CC)S(=O)(=O)c1ccc(-c2csc(Nc3ccc(C)c(C)c3)n2)cc1` [Compound 3, 4-{2-[(3,4-dimethylphenyl)amino]-1,3-thiazol-4-yl}-N,N-diethylbenzenesulfonamide hydrobromide], on rabbit aldolase, the “enzyme inhibition on rabbit aldolase” value was “no enzyme inhibition”. Further, in test [1], the “inhibition of P. falciparum aldolase” value was “inhibited”.
